Data taken from ChEMBL document CHEMBL3507680, “University of Dundee, Gates Library screen for HepG2 cell viability”.

Assay: Human HepG2 cell viability assay in 384 well format
Type: toxicity, cell-based
Design: dose 125 nL, time 70.5 hour; cytotoxicity at 70.5 h: concentration not given beside the values
Conditions: HepG2 cells, read-out: Inhibition

| Compound | cytotoxicity at 70.5 h [%] |
| --- | --- |
| CCNC(=O)NC1CN(Cc2ccccc2N(C)C)C[C@@H]1OC (stereo not given in full) | 5.63 |
| CCC(C)(CC(=O)O)NC(=O)Cc1ccccc1F (stereo not given) | 26.6 |
| CSC1(CNC(=O)NC(C)c2ccc(F)c(F)c2)CCOCC1 (stereo not given) | -1.76 |
| CN(C)C(=O)Cc1ccccc1NCc1cccc(F)c1F | 0.378 |
| CCN(CCC(=O)OC)C(=O)c1cccc(Cn2nc(C)cc2C)c1 | 4.14 |
| COc1ccc(C)c2c1N(C(=O)c1cnc(C)s1)CCC2 | -1.73 |
| O=S(=O)(CCSc1nccn1C1CC1)c1ccccc1 | -5.9 |
| CSC1(CNC(=O)NC(C)Cc2cccc(F)c2)CCOCC1 (stereo not given) | 0.72 |
| Cc1csc(CNc2cnn(CC(C)C)c2)n1 | 3.86 |
| Cc1c(C(=O)NS(=O)(=O)c2ccc(F)cc2)cnn1CC(C)C | 20.5 |
| CC(C)(C)OC(=O)N1CCCN1C(=O)c1cccc(F)c1F | -5.84 |
| CCC(C)(CC(=O)O)NC(=O)Cc1ccccc1Br (stereo not given) | -4.24 |
| CCN(Cc1nc(C2CC2)no1)Cc1ccc(C#N)cc1F | -3.69 |
| CC(NC1CCN(CCS(C)(=O)=O)CC1)c1cnn(C(C)C)c1 (stereo not given) | -10.2 |
| COCc1noc(Cc2cc(Cl)c3c(c2)OCCCO3)n1 | -4.84 |
| COCC(C)NC(=O)CN1CCC(CO)CC1 (stereo not given) | -3.9 |
| CC(Cn1cccn1)NC(=O)N(C)Cc1ccc(C(N)=O)cc1 (stereo not given) | 37.9 |
| Cn1cc(NC(=O)c2cccc3cccnc23)ccc1=O | -18.3 |
| O=C1CCC(C(=O)Nc2ccc(=O)n(Cc3ccccc3Cl)c2)N1 (stereo not given) | -4.13 |
| O=C1NCC(C(=O)Nc2ccc(=O)n(Cc3ccccc3Cl)c2)N1 (stereo not given) | -21.3 |
| COc1ccc2c(OCC(=O)NCC(F)(F)F)ccnc2c1 | -15.8 |
| CN(C(=O)Nc1nncs1)C1CCN(c2ccccc2Cl)C1=O (stereo not given) | -21.1 |
| COc1cc(F)c(S(=O)(=O)Nc2cnc(O)cc2C)cc1OC | -11.9 |

| Compound | cytotoxicity at 70.5 h [%] |
| --- | --- |
| Cc1cc(O)ncc1NS(=O)(=O)c1cccc(F)c1F | -19.8 |
| CCC1C(=O)NCCN1c1nccc(C)n1 (stereo not given) | 45.2 |
| c1cnn(CCNCc2ccc(N3CCCCC3)cc2)c1 | -13.6 |
| CC(C)c1nsc(N2CCSCC2)n1 | -22.2 |
| CC(=O)N(Cc1noc(C)n1)C1CCN(CC2(O)CCCCC2)C1 (stereo not given) | -27.3 |
| O=C(Nc1cccc(OCc2ccc(F)cc2)c1)C1COCCO1 (stereo not given) | -4.75 |
| Cc1nn(CCO)c(C)c1CNC1CCc2c(Cl)cccc21 (stereo not given) | 10.2 |
| CCN(CC)CC(=O)NCCc1csc(N2CCCC2)n1 | -3.59 |
| Cc1ccc(C2COCCN2C(=O)c2ccc(CN(C)C)cc2)o1 (stereo not given) | -6.21 |
| CCN(CC1CN(Cc2ncc(C)o2)CCO1)c1cccnn1 (stereo not given) | -2.43 |
| COc1cc(C(=O)N(CCC#N)Cc2ccccn2)cc(OC)c1C | -6.63 |
| O=C(c1cnn(-c2ccccc2F)c1)N1CCN(CCO)CC1 | -3.38 |
| CC(C)c1cccc(CSc2nnc(CN3CCCC3=O)o2)n1 | -8 |
| CCN(CC1CN(CCc2ccccn2)CCO1)c1cccnn1 (stereo not given) | -3.03 |
| COCc1noc(C2(c3ccc(F)cc3)CCOCC2)n1 | 28.8 |
| O=C(NCC1(N2CCOCC2)CCSC1)Nc1ccc(F)cc1 (stereo not given) | -6.94 |
| CCn1cc(NC(=O)NCC2(N3CCOCC3)CCSC2)cn1 (stereo not given) | -1.94 |
| O=C(NCc1nnc2n1CCC2)N(Cc1ccco1)C1CC1 | -10.5 |
| COc1ccnc(N2CCN(C(=O)CCc3nccs3)CC2)n1 | -10.9 |
| Cc1ccccc1C(=O)NCc1ccc(N2CCNC(=O)C2)c(F)c1 | -8 |
| CCCn1c(C)cc(C(=O)CN2C(=O)c3ccccc3CS2(=O)=O)c1C | -10.8 |
| Cc1cc(C)n(CC2CCCN2CCCS(=O)(=O)N(C)C)n1 (stereo not given) | -9.4 |
| CCc1nc(COc2ccc(OCc3cnn(C)c3)cc2)no1 | -2.52 |

| Compound | cytotoxicity at 70.5 h [%] |
| --- | --- |
| COCc1noc(C2(c3ccc(Br)cc3)CCOCC2)n1 | -10.1 |
| O=C(NCc1nnc2n1CCCC2)N(Cc1ccccc1F)C1CC1 | -11.1 |
| CCc1noc(CNc2ccc(F)cc2OCC2CC2)n1 | -7.55 |
| CS(=O)(=O)CCC(=O)NC1(c2cccc(Br)c2)CC1 | -8.28 |
| CN(Cc1ccco1)Cc1ccccc1CNC(=O)c1cc[nH]n1 | -6.12 |
| O=C(Nc1ccc(CCN2CCC(O)CC2)cc1)Nc1cccnc1 | -1.85 |
| CC(c1ccc(Cl)cc1)N1CCN(CCNS(C)(=O)=O)CC1 (stereo not given) | -0.037 |
| c1ccc(-c2cc(CN3CCC(c4ccn[nH]4)CC3)on2)cc1 | -7.56 |
| CCN(CCC(F)(F)F)C(=O)Nc1cccc(N2CCOCC2)c1 | -7.71 |
| N#CCCCS(=O)(=O)N1CCCC1CC(=O)c1cccs1 (stereo not given) | -6.62 |
| CCC(CNC(=O)c1ccc(Br)o1)N1CCc2ccccc2C1 (stereo not given) | -7.37 |
| COCCn1nc(C(=O)N2CCCC2c2cccc(F)c2)ccc1=O (stereo not given) | -8.14 |
| CC(=O)c1cccc(OCCCC(=O)N(C)Cc2ccccn2)c1 | -2.88 |
| COc1ccc(C(C)=O)c(OCC(=O)NC(C)c2ccc(F)cc2)c1 (stereo not given) | -14.9 |
| CCc1nnsc1C(=O)NC1CCN(c2ccccn2)CC1 | 11.2 |
| CN1CCN(Cc2ccccc2CNC(=O)c2ccc(Br)cc2F)CC1 | -4.3 |
| Cc1noc(C)c1CCC(=O)NC(C)c1nnc2n1CCC2 (stereo not given) | 8.52 |
| Cc1ccc(C(C)NC(=O)Nc2ccccc2CN2CCOCC2)o1 (stereo not given) | -11.2 |
| CN(C(=O)C1CSCN1S(=O)(=O)c1ccc(F)cc1)C1CC1 (stereo not given) | -9.65 |
| CC(C)C(C)NC(=O)Nc1ccccc1CN1CCOCC1 (stereo not given) | -8.46 |
| c1cc(CNCc2ccnc(N3CCOCC3)c2)c2c(c1)OCCO2 | -9.77 |
| CC(=O)N(C)CC(=O)Nc1cccc(N2CCN(CC3CC3)CC2)c1 | -7.37 |
| Cc1cn(CC(=O)NC2CCN(C(=O)C3CC3)CC2)c2ccccc12 | -9.4 |

| Compound | cytotoxicity at 70.5 h [%] |
| --- | --- |
| Cc1cc2n(n1)CC(CNC1CCN(c3ccc(F)cc3)CC1)CN2 (stereo not given) | -5.25 |
| COCc1cccc(NC(C)C(=O)N(C)Cc2cccc(F)c2)c1 (stereo not given) | -2.97 |
| COc1ccc(CNC(=O)CNc2cc3c(cc2Cl)OCCCO3)cc1 | -5.19 |
| CCc1ccc(C(=O)NC2CCN(c3cnn(C)c3)C2=O)o1 (stereo not given) | -9 |
| CCC(CC)c1cc(CNC(=O)N2CCOC(C)C2)on1 (stereo not given) | -9.44 |
| O=C1CC2(CCCCC2)CC(=O)N1CC(O)COCc1ccc(Cl)cc1 (stereo not given) | -6.34 |
| CCOC(=O)NC(CNC(=O)CCc1ccccn1)CC(C)C (stereo not given) | -8.82 |
| Cc1cc2c(cc1C)C(NCc1nnc3n1CCCCC3)CCCO2 (stereo not given) | -7.63 |
| Cc1ccc2c(c1)OCCCC2NCc1nnc2n1CCCCC2 (stereo not given) | -6.04 |
| CCN1CCN(c2ccc(F)cc2C(C)NCc2noc(C)n2)CC1 (stereo not given) | -7.42 |
| CC(O)CN1CCN(C(=O)CN(C)c2cnccn2)CC1 (stereo not given) | -8.51 |
| CC(O)CN1CCN(C(=O)CN(C)c2ccc(Cl)cn2)CC1 (stereo not given) | -12.2 |
| CC(CNC(=O)c1ccc(Cl)cc1I)N1CCCC1 (stereo not given) | -8.19 |
| Clc1ccc2oc(C3CCN(Cc4cccnc4)CC3)nc2c1 | 22.9 |
| O=C(NCC(=O)N1CCCCC1)c1ccc(Cl)cc1I | -10.6 |
| N#Cc1cccnc1NCCNC(=O)N1CCCC(C(F)(F)F)C1 (stereo not given) | -11.9 |
| CN(Cc1ccc(Cl)s1)C(=O)c1cccc(OCC(N)=O)c1 | -15.3 |
| O=C(NCCNc1ncccn1)N1CCCC(C(F)(F)F)C1 (stereo not given) | -9.23 |
| O=C(Cc1ccc(F)cc1)NCCNCC1CNc2ccnn2C1 (stereo not given) | 16.6 |
| CC(C(=O)NCc1ccnc(N(C)C)c1)n1cncn1 (stereo not given) | -10.2 |
| O=C(c1cccnc1-n1cncn1)N1CCN(CC2CC2)CC1 | -7.39 |
| COC(=O)c1ccc(C(=O)NS(=O)(=O)c2cncc(Br)c2)cc1 | -3.96 |
| N#Cc1ccc(C(=O)N2CCn3cc(CN4CCCCC4)nc3C2)cc1 | -11.7 |

| Compound | cytotoxicity at 70.5 h [%] |
| --- | --- |
| COCC(=O)N1CCc2ncc(Cn3cncn3)n2CC1 | -16.6 |
| C[C@@H]1CN(C(=O)c2cccn2C)C[C@]12CCN(c1ccsc1)C2=O | -13.8 |
| Cc1nc(NCC2CC2)nc2c1COCC21CCN(C(=O)C(C)(C)C)C1 (stereo not given) | -18.4 |
| O=C(c1ncccn1)N1CCC[C@]2(C[C@H](OCC3CC3)CO2)C1 | -16.3 |
| O=C(c1ncccn1)N1CCC[C@]2(C[C@@H](OCC3CC3)CO2)C1 | -16.4 |
| O=C(c1ccc(F)c(F)c1)N1CCC[C@]2(C[C@@H](OCC3CC3)CO2)C1 | -12.6 |
| O=C(c1ccncn1)N1CCC[C@]2(C[C@@H](OCC3CC3)CO2)C1 | -13.8 |
| COCC(=O)N1CCC2(CC1)CN(c1cncnc1)C(=O)CO2 | -12 |
| C[C@H]1CN(C(=O)c2ccc[nH]2)C[C@@]12CCN(c1ccsc1)C2=O | -5.02 |
| COCC(=O)N1CC[C@@H]2O[C@@H](C)C[C@H]2C1 | -12.2 |
| COCC(=O)N1CC[C@H]2O[C@@H](C)C[C@H]2C1 | -8.73 |
| O=C(c1ccnnc1)N1CCn2cc(CN3CCCCC3)nc2C1 | -4.84 |
| CC(=O)N1CCOC2(CCCN(C(=O)c3ccc(Cl)cc3)C2)C1 (stereo not given) | -15.6 |
| CCC1COC2(CCN(C(=O)c3ccco3)CC2)C1 (stereo not given) | -9.86 |
| Cc1ccc(C(=O)N2CC[C@H]3[C@H]2CCN3CC2CCOCC2)cn1 | -9.27 |
| c1cc(CNCc2ccc3c(c2)CCO3)cc(N2CCOCC2)n1 | -9.64 |
| O=C1NC2(CCNCC2)CC1c1ccccc1 (stereo not given) | 30.9 |
| O=C1NC2(CCNCC2)CC1c1ccncc1 (stereo not given) | 10.1 |
| Cc1cccc(C(=O)N2C[C@@H](C)[C@@]3(CCN(c4ccsc4)C3=O)C2)n1 | -16.4 |
| Cc1ccc(C(=O)N2CC[C@H]3[C@H]2CCN3CC2CCOCC2)cc1F | 3.15 |
| CN(Cc1ccccn1)C1CC2(CCN(Cc3ccccn3)CC2)C1 | -10.9 |
| CN(Cc1ccco1)[C@@H]1CN(Cc2ccc(F)cc2)[C@@H]2CCCO[C@H]12 | 6.23 |
| CCCc1ccc(C(=O)N2Cc3c(Cn4ccnc4)nn(C)c3C2)cc1 | -8.3 |
